# Patent publication US20190350955A1, “METHODS AND PHARMACEUTICAL COMPOSITIONS FOR THE TREATMENT OF CARDIOMYOPATHIES” (INSERM (Institut National de la Sante et de la Recherche …, priority 2016, published 2019)
# What was measured:
# Assay type in all cases: in vivo, mouse
# Lmna^WT/WT mice = assay: NAD+ content quantification in heart and liver of treated wild type mice; details: NR diet same dosage (400 mg/kg/day), 9 weeks
# Experimental: Mice were bred in an accredited animal facility (accreditation number: C-75-13-08). All experiments on mice were approved by the Comité d'éthique en expérimentation animate Charles Darwin No 5. Mice Lmna^H222P/H222P were backcrossed 8 times to 129S2/SvPasOrlRj strain mice to obtain pure genetic background. Male mice used for the studies were maintained under a 12 h light/12 h dark cycle at constant temperature (23° C.) with free access to food and water. Nicotinamide riboside (NR) complementation: Animals at 17 weeks of age were fed for 9 weeks with either a chow diet (A04: Scientific Animal Food & Engineering) or a chow diet complemented with 0.25% of NR (kindly provided by ChromaDex, Inc. California) corresponding to a dose of 400 mg/kg/day for a mouse weighing 25 g eating 4 g of food per day. […]
# Fresh mouse tissues were homogenized and processed according to previous report (Sander B J, Oelshlegel F J & Brewer G J (1976) Quantitative analysis of pyridine nucleotides in red blood cells: a single-step extraction procedure. Anal. Biochem. 71: 29-36). The concentration of NAD+ in heart tissue was determined using a spectrophotometric assay at 550 nm based on an alcohol dehydrogenase cycling reaction, in which a Methyl Thiazolyl Tetrazolium (MTT) is reduced to Formazan. […]
# TAC mice [1] = assay: Myocardial NAD+ levels after TAC; details: 6 weeks after TAC, NR treated TAC group vs non treated CD TAC group
# Experimental: (§1) Transverse aorta constriction was performed in 2 month-old male mice under anesthesia (ketamine 100 mg/kg, xylazin 16 mg/kg). Skin was opened above the sternum and the upper part of the sternum was cut on a length of 2 mm allowing the mouse to breath without the need of a ventilator. A surgical suture was passed under the aortic cross between the right brachiocephalic (innominate) artery and left common carotid artery and a 27-½ gauge blunt needle was placed parallel to the wall of the aortic cross as a calibrator. Two loose knots were tied around the aortic cross and the needle. The first knot was quickly tied against the needle, followed by the second and the needle was promptly removed in order to produce a constriction of 0.4 mm in diameter. In sham, mice the procedure was the same except for the constriction of the aorta. NR treatment was started 2 days after the TAC or SHAM surgery.
# Tissue frozen powder was resuspended in 75% ethanol, 25% HEPES 10 mM pH 7.1, buffer (20 μl/mg of tissue). Extracts were warmed 5 min at 80° C., then directly cold on ice and centrifuge 5 min at 16 000 g. Tissues extracts were normalized on the weight of tissue used for extraction. […] After adjustment of dilution factors, NADH levels were calculated by substracting the NAD^+ concentration to the non-heated ethanolic extract values: NADH=NADt (non heated)−NAD^+ (heated). […]
# TAC mice [2] = assay: RT-qPCR of Nmrk2, Nmrk1, Nampt mRNA after TAC; details: 6 weeks after surgery, NR 400 mg/kg/day
# Experimental: as §1
# cDNAs were reverse transcribed from RNA (1.5 μg) extracted in TRIzol (Thermofisher) from cell cultures and tissues using the Superscript II Reverse Transcriptase (Life Technologies). Quantitative PCR was carried out on a Light Cycler 480 (Roche Diagnostics) using Fast Start SYBR Green Master (Roche Diagnostics). Quantification of gene expression was calculated as R=2^ΔCt(Ref Cp−target Cp), with Hprt used as a as reference. Primers were designed using the NCBI Primer-BLAST software. […]
smiles,measurement,setting,value
"NC(=O)c1ccc[n+]([C@@H]2O[C@H](CO)[C@@H](O)[C@H]2O)c1 [NR, nicotinamide riboside]",cellular NAD+ content in liver and heart,Lmna^WT/WT mice,same significant benefit
same,myocardial NAD+ levels,TAC mice [1],significantly higher
same,"Nmrk2, Nmrk1 and Nampt mRNA levels",TAC mice [2],no impact
